Test results: paper PMC11984586, “A novel spider toxin as a selective antagonist of the Kv1 subfamily of voltage-gated potassium channels through gating modulation” (The Journal of Biological Chemistry, 2025)
Bridge positions count the residues as written; N and C are the ends. Peptide text beside a SMILES is read from it.

Legend:
rKv1.4 = target: T1, rKv1.4 (Rattus norvegicus, UniProt P15385); test: Whole-cell patch clamp, Kv1.4 ionic current in CHO-K1 cells; assay type: cell-based
T1 construct: expressed in transfected cells; host or cells: CHO-K1
Procedure: (§1) The cDNA of hKv1.1, hKv1.2, hKv1.3, rKv1.4, hKv1.5, mKv1.6, and hKv1.7 were subcloned into mammalian expression vectors pcDNA3.1 or pCMV-blank vectors, as well as other plasmids described previously ([35]). Channel mutants were generated by site-directed mutations. Briefly, the parental channel plasmid was amplified using a pair of oppositely directed primers harboring the designed mutation site, with KOD Fx (TOYOBO Co, Ltd). The resulting PCR mix was treated with FastDigest DpnI (Thermo Fisher Scientific) to remove the methylated template. Ten microliters of the digested product was then used to transform 100 μl E. coli DH5α competent cells. […]
(§2) CHO-K1 cells were selected for expressing Kv channels due to their lack of endogenous Kv channels, while HEK293 or ND7/23 cells were used for Nav and Cav channel expression. […] After 4 to 6 h transfection, cells were seeded onto poly-lysine–coated coverslips, and 24 to 36 h later, transfected cells were ready for patch-clamp analysis. […]
For Kv current recordings, the bath solution contained (in mM) the following: 140 NaCl, 5 KCl, 1 MgCl2, 2 CaCl2, 10 glucose, and 10 Hepes (pH 7.3, adjusted with NaOH), and the pipette solution contained (in mM) the following: 140 KCl, 2.5 MgCl2, 11 EGTA, and 10 Hepes (pH 7.3, adjusted with KOH). […] The steady-state fast inactivation of Kv1.3 was measured using a two-pulses protocol. […]

Kv1.7/Y253A = test: Whole-cell patch clamp, Tyr-to-Ala mutant homologous to Kv1.3 Y339; assay type: cell-based, human; settings: 10 μM MrVIII, +30 mV, 500 ms, holding −80 mV, mean ± SD, n = 4–6
From the text: (§3) Building on the identification of key amino acid residues in Kv1.3 channel that interact with MrVIII through alanine-scanning mutagenesis, we extended our analysis to explore these residues across other Kv1 subfamily channels. […] However, MrVIII retained substantial inhibitory potency on Kv1.2/Y266A mutant, albeit without fully blocking the channel current. […] The profound reduction in MrVIII's effect across homologous mutants supports the idea that it binds to a conserved region.
as §1, §2
(§4) For Kv current recordings, the bath solution contained (in mM) the following: 140 NaCl, 5 KCl, 1 MgCl2, 2 CaCl2, 10 glucose, and 10 Hepes (pH 7.3, adjusted with NaOH), and the pipette solution contained (in mM) the following: 140 KCl, 2.5 MgCl2, 11 EGTA, and 10 Hepes (pH 7.3, adjusted with KOH). […] Whole cell conductance (G) at each depolarizing voltage (V) was determined using the equation: G = I/(V−Vrev), where I is the current amplitude, and Vrev is the reversal potential. […] The steady-state fast inactivation of Kv1.3 was measured using a two-pulses protocol. […]

Kv1.5/Y368A = test: as above; assay type: cell-based, human; settings: 10 μM MrVIII, +30 mV, 500 ms, holding −80 mV, mean ± SD, n = 4–6
From the text: as §3, §1, §2, §4

Kv1.1/Y256A = test: as above; assay type: cell-based, human; settings: 10 μM MrVIII, +30 mV, 500 ms, holding −80 mV, mean ± SD, n = 4–6
From the text: as §3, §1, §2, §4

hERG = test: Selectivity patch clamp, non-Kv1 channels; assay type: cell-based, human; settings: 10 μM MrVIII; n = 3–5
Procedure: CHO-K1 cells were selected for expressing Kv channels due to their lack of endogenous Kv channels, while HEK293 or ND7/23 cells were used for Nav and Cav channel expression. CHO-K1 cells were cultured in a Dulbecco's modified Eagle's medium/Ham's F-12 nutrient mixture (DMEM-F12) medium, and HEK293T and ND7/23 cells in DMEM medium, all supplemented with 10% fetal bovine serum and 1% penicillin-streptomycin (all from Gibco, Thermo Fisher Scientific, Inc) under standard conditions (37 °C, 5% CO2, and saturated humidity). These cell lines were purchased from Stem Cell Bank, Chinese Academy of Sciences. […] After 4 to 6 h transfection, cells were seeded onto poly-lysine–coated coverslips, and 24 to 36 h later, transfected cells were ready for patch-clamp analysis. […]
as §4

Kv7.3 = test: Selectivity patch clamp, non-Kv1 channels; assay type: cell-based; settings: 10 μM MrVIII; n = 3–5
Procedure: (§5) CHO-K1 cells were selected for expressing Kv channels due to their lack of endogenous Kv channels, while HEK293 or ND7/23 cells were used for Nav and Cav channel expression. CHO-K1 cells were cultured in a Dulbecco's modified Eagle's medium/Ham's F-12 nutrient mixture (DMEM-F12) medium, and HEK293T and ND7/23 cells in DMEM medium, all supplemented with 10% fetal bovine serum and 1% penicillin-streptomycin (all from Gibco, Thermo Fisher Scientific, Inc) under standard conditions (37 °C, 5% CO2, and saturated humidity). These cell lines were purchased from Stem Cell Bank, Chinese Academy of Sciences. Channel plasmids were cotransfected with pEGFP-N1 (encoding GFP) into the respective cells using lipofectamine 2000, following the manufacturer's instructions (Invitrogen, Thermo Fisher Scientific, Inc.). Nav1.9-GFP plasmid was transfected into ND7/23 using the X-tremeGENE HP DNA Transfection Reagent (Roche). After 4 to 6 h transfection, cells were seeded onto poly-lysine–coated coverslips, and 24 to 36 h later, transfected cells were ready for patch-clamp analysis.
(§6) Patch clamp experiments were conducted using an electrophysiology platform comprising a MultiClamp 700B amplifier and an Axon Digidata 1550 AD/DA convertor (Axon Instruments). Data acquisition was performed with pClamp 10.5 software (Axon Instruments). All experiments were performed at room temperature.
(§7) For Kv current recordings, the bath solution contained (in mM) the following: 140 NaCl, 5 KCl, 1 MgCl2, 2 CaCl2, 10 glucose, and 10 Hepes (pH 7.3, adjusted with NaOH), and the pipette solution contained (in mM) the following: 140 KCl, 2.5 MgCl2, 11 EGTA, and 10 Hepes (pH 7.3, adjusted with KOH). Series resistance was maintained below 10 MΩ and compensated to 80%. Concentration–response curves were fitted by the Hill equation to determine the toxin's potency. Whole cell conductance (G) at each depolarizing voltage (V) was determined using the equation: G = I/(V−Vrev), where I is the current amplitude, and Vrev is the reversal potential. The reversal potential for K^+ current was estimated to be −85.6 mV using the Nernst equation. G-V curves were obtained by plotting the normalized conductance as a function of V and fitted by the Boltzmann equation: y = 1/(1+ exp((Va-V)/k)), which Va is the midpoint voltage, V is the test potential, and k is the slope factor. The steady-state fast inactivation of Kv1.3 was measured using a two-pulses protocol. The cell was held at −120 mV, and a train of conditional voltages (−120–40 mV in 10 mV increments, 60 s) were applied to induce channel inactivation, followed by a +60 mV test pulse (300 ms) to assess the proportion of noninactivated channels. The sweep interval was set to 30 s. Currents at the test pulse (I) were normalized to the maximum value (Imax) and plotted as a function of the conditional voltage (V). The curve was fitted by the Boltzmann equation: I/Imax = A+(1 − A)/(1+exp ((V−Vh)/K)), where Vh is the half-maximum inactivation voltage, A represents the minimum channel availability, and k is the slope factor.

Kv4.1-4.3 = test: Selectivity patch clamp, non-Kv1 channels; assay type: cell-based; settings: 10 μM MrVIII; n = 3–5
Procedure: as §5, §6, §7

Kv3.1-3.3 = test: Selectivity patch clamp, non-Kv1 channels; assay type: cell-based; settings: 10 μM MrVIII; n = 3–5
Procedure: as §5, §6, §7

Kv7.1 = test: Selectivity patch clamp, non-Kv1 channels; assay type: cell-based; settings: 10 μM MrVIII; n = 3–5
Procedure: as §5, §6, §7

Kv2.1 = test: Selectivity patch clamp, non-Kv1 channels; assay type: cell-based; settings: 10 μM MrVIII; n = 3–5
Procedure: as §5, §6, §7

T1 sequence (P15385 whole entry): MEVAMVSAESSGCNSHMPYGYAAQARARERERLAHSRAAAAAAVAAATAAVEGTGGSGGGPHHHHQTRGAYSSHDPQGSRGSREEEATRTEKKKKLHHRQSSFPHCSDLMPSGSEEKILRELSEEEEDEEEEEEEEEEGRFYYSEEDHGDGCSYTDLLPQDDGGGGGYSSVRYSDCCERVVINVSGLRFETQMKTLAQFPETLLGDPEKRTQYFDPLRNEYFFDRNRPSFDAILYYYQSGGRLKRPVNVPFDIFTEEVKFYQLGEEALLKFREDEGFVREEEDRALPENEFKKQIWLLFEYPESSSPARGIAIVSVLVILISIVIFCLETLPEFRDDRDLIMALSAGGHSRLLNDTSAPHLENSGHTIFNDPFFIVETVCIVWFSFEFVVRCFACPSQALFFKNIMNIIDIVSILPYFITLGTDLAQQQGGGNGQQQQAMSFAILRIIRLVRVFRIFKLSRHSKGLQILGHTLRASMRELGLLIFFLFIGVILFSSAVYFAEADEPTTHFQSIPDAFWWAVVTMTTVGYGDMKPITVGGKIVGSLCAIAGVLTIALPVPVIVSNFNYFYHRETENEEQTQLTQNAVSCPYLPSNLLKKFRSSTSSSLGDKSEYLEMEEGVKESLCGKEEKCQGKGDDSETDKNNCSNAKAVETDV

CC[C@H](C)[C@@H]1NC(=O)[C@H](Cc2ccc(O)cc2)NC(=O)[C@H](CCC(N)=O)NC(=O)[C@@H]2CCCN2C(=O)[C@@H]2CSSC[C@H](NC(=O)[C@H](C)NC(=O)[C@H](CO)NC(=O)[C@H](CCC(=O)O)NC(=O)[C@H](CCC(=O)O)NC(=O)[C@@H](N)[C@@H](C)O)C(=O)NCC(=O)NCC(=O)N[C@@H](Cc3ccccc3)C(=O)N[C@@H](CC(N)=O)C(=O)N[C@@H](C)C(=O)N[C@@H](CCCNC(=N)N)C(=O)N[C@H]3CSSC[C@H](NC1=O)C(=O)N[C@@H](CCCCN)C(=O)NCC(=O)N[C@@H](Cc1c[nH]c4ccccc14)C(=O)N[C@@H](CCCNC(=N)N)C(=O)N[C@@H]([C@@H](C)O)C(=O)N[C@@H](CCCCN)C(=O)N[C@@H](CCCNC(=N)N)C(=O)N[C@H](C(=O)N[C@@H](CC(C)C)C(=O)N[C@@H](CC(N)=O)C(=O)N1CCC[C@H]1C(=O)O)CSSC[C@H](NC(=O)[C@H](CCCCN)NC(=O)[C@H](Cc1c[nH]cn1)NC(=O)[C@H](CC(C)C)NC(=O)[C@@H]1CCCN1C3=O)C(=O)N2 [MrVIII] (H-TEESACGGFNARCPLHKCCPQYICKGWRTKRCLNP-OH; disulfide 6-19, 13-24, 18-32; N-terminus and C-terminus assumed)
IC50 (rKv1.4; current measured at 50 ms of a 500 ms depolarization to +30 mV, mean ± SD, n = 4–7, SD): 62.7 ± 56.9 nM
enhancement of the 495 ms current of Kv1.4 (rKv1.4; in the presence of MrVIII (10 μM saturating), +30 mV, 495 ms): 3.9 fold
inhibition of Kv1.7/Y253A current (Kv1.7/Y253A): −9.4 ± 13.6%
inhibition of Kv1.5/Y368A current (Kv1.5/Y368A): 19.1 ± 6.2%
inhibition of Kv1.1/Y256A current (Kv1.1/Y256A): −9.5 ± 4.4%
inhibition of hERG current (hERG): did not remarkably inhibit
inhibition of Kv7.3 current (Kv7.3): did not remarkably inhibit
inhibition of Kv4.1-4.3 currents (Kv4.1-4.3): did not remarkably inhibit
inhibition of Kv3.1-3.3 currents (Kv3.1-3.3): did not remarkably inhibit
inhibition of Kv7.1 current (Kv7.1): did not remarkably inhibit
inhibition of Kv2.1 current (Kv2.1): did not remarkably inhibit
